Results on five compounds are retold here after patent US20240294551A1 (AMGEN INC., priority 2022, published 2024).

Experiment [1] deals with Phosphorylation of ERK1/2 in AsPC-1 cells. Put plainly: Phospho-ERK1/2 MSD Assay. Particulars: Homo sapiens, ASPC1, 2 h, read-out: 2 h p-ERK (AsPC-1 cells), IC50. In kind it is cell-based, human. The gist of the method: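 Read-out: MSD electrochemiluminescent detection of phosphorylated ERK1/2 in whole-cell lysates, fitted to a 4-parameter logistic curve for IC50. Prior to lysis, AsPC-1 cells (25,000 per well) received a 2 h compound dose-response at 37 °C.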

Experiment [2] has as its system AsPC-1 cells. As to the kind of experiment: AsPC-1 CTG Assay (CellTiter-Glo cell viability). The class given is cell-based, human. Particulars: Homo sapiens, ASPC1, 72 h, AsPC-1, 72 h; first value of the cell; read-out: G12D/C/V Cell Proliferation CTG (72 h) AsPC-1. An outline of the steps:
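IC50 values derive from 4-parameter logistic fits of CellTiter-Glo luminescence, expressed relative to DMSO. Compound dilution series were applied to overnight-seeded AsPC-1 or SW620 cells (RPMI 1640, 10% FBS) for 72 h at 37 °C, 5% CO2.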
(In general: In ATP-based viability assays light output follows the ATP content of the culture.)

Experiment [3] concerns MIA PaCa-2 cells. As to the kind of experiment: MIA PaCa-2 CTG Assay (CellTiter-Glo cell viability). Particulars: Homo sapiens; Mia PaCa-2, 72 h; second value of the cell; read-out: G12D/C/V Cell Proliferation CTG (72 h) Mia PaCa-2. In kind it is cell-based, human. The gist of the method:
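IC50 values come from a 4-parameter logistic fit of CellTiter-Glo luminescence, normalized to DMSO control, after 72 h compound exposure at 37° C, 5% CO2. Cells grew in RPMI 1640 plus 10% FBS and were seeded at 1.67E+04 cells/mL one night before dosing.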

Experiment [4] has as its target His-tagged KRAS G12D protein (Homo sapiens (Human), UniProt P01116, G12D). As to the kind of experiment: KRAS G12D TR-FRET Assay. The class given is binding. Particulars: read-out: KRAS G12D Binding IC50. An outline of the steps: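 Each incubation ran at room temperature: enzyme with compound for 30 minutes, peptide for one hour, and detection reagents (0.4 nM europium anti-6×His, 5 nM streptavidin-d2) for one hour more. Protein and peptide stocks were each diluted to 20 nM before addition.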
(TR-FRET usually uses a lanthanide donor and a delayed reading to cut background.)

Experiment [5] deals with GDP-bound KRAS protein (aa 1-169), containing both G12D and C118A amino acid substitutions (Homo sapiens (Human), UniProt P01116, C118A/G12D). As to the kind of experiment: KRAS G12D Coupled Nucleotide Exchange Assay. Particulars: read-out: KRAS G12D Coupled Exchange IC50. The class given is biochemical.

Molecules are shown by their SMILES.

His-tagged KRAS G12D protein, sequence (P01116 other isoform, or with tags, fused parts or gaps G12D): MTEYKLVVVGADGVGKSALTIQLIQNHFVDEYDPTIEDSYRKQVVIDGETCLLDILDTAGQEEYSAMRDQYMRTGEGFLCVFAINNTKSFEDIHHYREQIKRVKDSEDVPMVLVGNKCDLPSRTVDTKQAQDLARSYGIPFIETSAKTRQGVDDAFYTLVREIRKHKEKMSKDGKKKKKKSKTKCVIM
GDP-bound KRAS protein (aa 1-169), containing both G12D and C118A amino acid substitutions, sequence (P01116 other isoform, or with tags, fused parts or gaps G12D/C118A): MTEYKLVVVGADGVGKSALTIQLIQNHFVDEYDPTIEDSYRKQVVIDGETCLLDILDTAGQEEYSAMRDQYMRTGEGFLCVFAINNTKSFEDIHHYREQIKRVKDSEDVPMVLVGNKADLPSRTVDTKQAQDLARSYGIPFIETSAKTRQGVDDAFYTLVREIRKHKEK

For `C[C@@]12COCCN(C1)c1nc(OC[C@@]34CCCN3C[C@@H](F)C4)nc3c(F)c(ncc13)-c1c(c(Cl)cc3[nH]ncc13)CCCOC(=O)O2` [Example 359, (26S)-18-chloro-32-fluoro-4-(((25,7aS)-2-fluorotetrahydro-1H-pyrrolo[1,2-a]pyrrol-7a(5H)-yl)methoxy)-26-methyl-23,25,28-trioxa-1,3,5,9,14,15-hexaazahexacyclo[24.4.1.1~6,10~.0~2,7~.0~11,19~.0~12,16~]dotriaconta-2,4,6(32),7,9,11,13,16,18-nonaen-24-one], the IC50 in experiment [1] stood at 101 nM; in experiment [2], 410 nM; in experiment [3], 107 nM; in experiment [4], 12 nM; in experiment [5], 4 nM.
On the same counts, the results for `O=C1OCCCc2c(Cl)cc3[nH]ncc3c2-c2ncc3c(nc(OC[C@@]45CCCN4C[C@@H](F)C5)nc3c2F)N2CCOC[C@H](C2)O1` [Example 360, (26S)-18-chloro-32-fluoro-4-(((25,7aS)-2-fluorotetrahydro-1H-pyrrolo[1,2-a]pyrrol-7a(5H)-yl)methoxy)-23,25,28-trioxa-1,3,5,9,14,15-hexaazahexacyclo[24.4.1.1~6,10~.0~2,7~.0~11,19~.0~12,16~]dotriaconta-2,4,6(32),7,9,11,13,16,18-nonaen-24-one] are 118 nM, 457 nM, 344 nM, 10 nM and 3 nM.
On the same counts, the results for `O=C1OCCc2c(F)ccc3cc(O)cc(c23)-c2ncc3c(nc(OC[C@@]45CCCN4C[C@H](F)C5)nc3c2F)N2CCOC[C@H](C2)O1` [Example 361, (16S)-23,32-difluoro-8-(((2R,7aS)-2-fluorotetrahydro-1H-pyrrolo[1,2-a]pyrrol-7a(5H)-yl)methoxy)-28-hydroxy-14,17,19-trioxa-3,7,9,11-tetraazahexacyclo[20.7.1.1~2,6~.1~11,16~.0~5,10~.0~26,30~]dotriaconta-1(30),2(32),3,5,7,9,22,24,26,28-decaen-18-one] are 0.4 nM, 7 nM, 5 nM, 3 nM and 1 nM.
For `C[C@@]12COCCN(C1)c1nc(OC[C@@]34CCCN3C[C@H](F)C4)nc3c(F)c(ncc13)-c1c3c(cc4[nH]ncc14)CC[C@H]3CCOC(=O)O2` [Example 365, (16S,22S)-34-fluoro-8-(((2R,7aS)-2-fluorotetrahydro-1H-pyrrolo[1,2-a]pyrrol-7a(5H)-yl)methoxy)-16-methyl-14,17,19-trioxa-3,7,9,11,28,29-hexaazaheptacyclo[20.9.1.1~2,6~.1~11,16~.0~5,10~.0~25,32~.0~27,31~]tetratriaconta-1(31),2(34),3,5,7,9,25(32),26,29-nonaen-18-one], the IC50 turned out to be 6.7 nM in experiment [1]; 141 nM in experiment [2]; 11 nM in experiment [3]; 3 nM in experiment [4]; 1 nM in experiment [5].
On the same counts, the results for `O=C1OCC[C@@H]2CCc3cc4[nH]ncc4c(c32)-c2ncc3c(nc(OC[C@@]45CCCN4C[C@H](F)C5)nc3c2F)N2CCOC[C@H](C2)O1` [Example 367, (16S,22S)-34-fluoro-8-(((2R,7aS)-2-fluorotetrahydro-1H-pyrrolo[1,2-a]pyrrol-7a(5H)-yl)methoxy)-14,17,19-trioxa-3,7,9,11,28,29-hexaazaheptacyclo[20.9.1.1~2,6~.1~11,16~.0~5,10~.0~25,32~.0~27,31~]tetratriaconta-1(31),2(34),3,5,7,9,25(32),26,29-nonaen-18-one] are 9.2 nM, 139 nM, 26 nM, 4 nM and 2 nM.
